Assay [1] concerns neonatal islets. Briefly: Quantitative PCR of MafA, insulin and other gene transcription in dispersed neonatal islets cultured with glucose and T3. In kind it is cell-based, rat. To be noted: for insulin mRNA / MafA mRNA: 4 days. As to the method: To analyze the role of thyroid hormone during postnatal development of the endocrine pancreas, dispersed P7 islets were cultured with the two changing physiological stimuli identified so far glucose (11 mM and 20 mM) and tri-iodothyronine (T3 at 10^−11 M in charcoal-stripped fetal bovine serum (CS-FBS)), and after 4 days MafA and insulin transcription were assessed.
To further explore this idea, dispersed P8 islets were cultured with two changing physiological stimuli identified so far glucose (11 mM and 20 mM) and tri-iodothyronine (T3) at a concentration of 10^−11 M (T-11; gray bars) or with […] T3 (T-9) in charcoal-stripped fetal bovine serum (CS-FBS); after 4 days transcription levels of MafA and the MafA targets Ins2, GLP1R, PCSK1, PC, and LDH-A were assessed.
(§1) Similar results were found in static incubation experiments were performed with P7 dispersed islets cultured in the presence (or absence) of 10^−11 M T3 for four days. mRNA levels for MafA and Ins2 were evaluated using real-time PCR. […] To further evaluate insulin secretion in these cells, P8 islets were dispersed and then cultured for 4 days with and without 10^−11 M T3, and a reverse hemolytic plaque assay (RHPA) was used to evaluate insulin secretion from single beta cells. […] FIGS. 8A-8B show beta cell glucose responsiveness in 2.8 or 16.8 mM glucose in control cells (8A) or cells treated with T3 (8B) in one of the three RHPA experiments.

A further assay relates to P7 dispersed islets. Briefly: Glucose-stimulated insulin secretion by static incubation, insulin ELISA. In kind it is cell-based, rat. To be noted: 10^−11 M T3 for four days, FIG. 6B. As to the method: RHPA allows the evaluation of secretion from single beta cells (see, e.g., Bosco et al., Am. J. Physiol., 268:C611-C618, 1995; Aguayo-Mazzucato et al., PLoS ONE, 1:e35, 2006). Briefly, insulin secreted during incubation with glucose binds to anti-insulin antibody and complement and lyses RBCs forming hemolytic immunoplaques around secreting cells. Accordingly, the area of the hemolytic plaque is proportional to the amount of insulin secreted by that individual cell. Glucose-stimulated insulin secretion (GSIS) is reflected by the secretion index: the product of the percentage of secreting cells and the mean area of immunoplaques. RHPA is a very sensitive assay in which the proportion of cells secreting and the robustness of their secretion can be measured. […] Insulin secretion was measured in static conditions by sequential incubation in 2.6 mM and 16.8 mM glucose in Krebs-Ringer bicarbonate buffer (KRB, 16 mM HEPES and 0.1% BSA, pH 7.4) as previously described (Schuppin et al., In Vitro Cell Dev Biol Anim 29A:339-344 (1993); Salomon et al., Exp Cell Res 162:507-520 (1986)). […]
Similar results were found in static incubation experiments were performed with P7 dispersed islets cultured in the presence (or absence) of 10^−11 M T3 for four days. mRNA levels for MafA and Ins2 were evaluated using real-time PCR. […]
Background: In an ELISA, binding on a coated surface is turned into a signal by an enzyme label.

The test system of another assay is single beta cells. As to the kind of experiment: Reverse hemolytic plaque assay (RHPA) of insulin secretion from single beta cells. In kind it is cell-based, rat. As to the method:
RHPA allows the evaluation of secretion from single beta cells (see, e.g., Bosco et al., Am. J. Physiol., 268:C611-C618, 1995; Aguayo-Mazzucato et al., PLoS ONE, 1:e35, 2006). Briefly, insulin secreted during incubation with glucose binds to anti-insulin antibody and complement and lyses RBCs forming hemolytic immunoplaques around secreting cells. Accordingly, the area of the hemolytic plaque is proportional to the amount of insulin secreted by that individual cell. Glucose-stimulated insulin secretion (GSIS) is reflected by the secretion index: the product of the percentage of secreting cells and the mean area of immunoplaques. RHPA is a very sensitive assay in which the proportion of cells secreting and the robustness of their secretion can be measured. However it is laborious, therefore classic static insulin secretion studies were also performed with an insulin ELISA for measurement. Insulin secretion was measured in static conditions by sequential incubation in 2.6 mM and 16.8 mM glucose in Krebs-Ringer bicarbonate buffer (KRB, 16 mM HEPES and 0.1% BSA, pH 7.4) as previously described (Schuppin et al., In Vitro Cell Dev Biol Anim 29A:339-344 (1993); Salomon et al., Exp Cell Res 162:507-520 (1986)). Supernatants and cells were frozen until assayed for Insulin content.
as §1

For assay [2], the system named is neonatal islets. As to the kind of experiment: Quantitative PCR of MafA, insulin and other gene transcription in dispersed neonatal islets cultured with glucose and T3. In kind it is cell-based, rat. To be noted: P7 islets cultured with glucose and T3 at 0.015 nM in CS-FBS for four days, separately and together, FIG. 5A legend.
In another assay the test system is beta cells. To be noted: Verga et al. 2006; cited from earlier work.
The next assay relates to pancreatic acinar cells. To be noted: Ledda-Columbano et al. 2005; cited from earlier work.
The conditions of assay [3]: in vivo administration, rats, Hartoft-Nielson et al. 2009; cited from earlier work.
Another assay relates to HPANC-1. To be noted: non-insulin expressing human epithelial cell line HPANC-1, Misiti et al. 2005; cited from earlier work.
Where [4] appears, read: P8 islet cells treated with T3 vs control untreated cells, quantitative PCR, FIG. 9.
The mark [5] stands for this setting: P8 islets cultured for 4 days with 0.015 nM T3 (T-9).
Where [6] appears, read: dispersed P8 islets, glucose (11 mM and 20 mM) and T3, CS-FBS, FIG. 5C.

Structures are written as SMILES.

Regarding `N[C@@H](Cc1cc(I)c(Oc2ccc(O)c(I)c2)c(I)c1)C(=O)O` [T3, L-3,5,3′-triiodothyronine], in the assay with neonatal islets [1] (P7 dispersed islets, 10^−11 M T3 for four days, real-time PCR, FIG. 6A), the “MafA mRNA levels increase” value is “about two-fold”. For the same compound, in the assay with neonatal islets [1] (setting [4]), the “transcription of MCT1” value is given as “significantly increases”, the “transcription of MafA” value is “significantly increases” and the “transcription of TRb” value is on record as “significantly increases”. In the assay on neonatal islets [1] (setting [5]), the “MafA mRNA increase compared with control cultured islets” value is listed as 2.5 fold and the “insulin mRNA increase compared with control cultured islets” value turned out to be 71%. The “insulin mRNA” value in the assay on neonatal islets [1] (dispersed P7 islets, glucose (11 mM and 20 mM) and T3 at 10^−11 M in CS-FBS, stimuli separately and together) is listed as “significantly increased”. Further, the “MafA mRNA” value in the assay on neonatal islets [1] (dispersed P7 islets, glucose (11 mM and 20 mM) and T3 at 10^−11 M in CS-FBS, stimuli separately and together, FIG. 5A) is recorded as “significantly increased”. In the assay on neonatal islets [1] (setting [6]), the “MafA mRNA” value is given as “significantly increased” and the “insulin mRNA” value is recorded as “significantly increased”. Further, the Glucose-stimulated insulin secretion entry in the assay with P7 dispersed islets is on record as “significantly increased”. In addition, the “insulin secretion in response to 16.8 mM glucose” value with single beta cells (P7 cells cultured for 4 days with thyroid hormone, one experiment) is “an increase in insulin secretion”. Besides, the “insulin secretion in the presence 16.8 mM glucose” value in the assay with single beta cells (P7 cells treated with T3 compared to untreated control cells, FIGS. 7A and 7B legend) is recorded as “increases insulin secretion”. For the same compound, in the assay on single beta cells (dispersed P8 islets cultured for 4 days with 10^−11 M T3, FIG. 7A), the insulin secretion index entry is “marked increase”. Also, in the assay on single beta cells (dispersed P8 islets cultured for 4 days with 10^−11 M T3, FIG. 7B), the “percentage of insulin secreting cells” value is reported as “marked increase”. Also, in the assay with neonatal islets [2], the MafA transcription result is reported as “increase”. Moreover, in the assay with beta cells, the “apoptosis in beta cells” value is listed as “reduces apoptosis” and the “cell proliferation in beta cells” value is reported as “promotes cell proliferation”. In the assay with pancreatic acinar cells, the “proliferation in pancreatic acinar cells” value is reported as “promotes increased proliferation”; the “proliferation in pancreatic islet (e.g., beta cells) and ductal cells” value is “but not in pancreatic islet (e.g., beta cells) and ductal cells”. In assay [3], the beta cell mass entry is given as “increased” and the “incidence of type I diabetes” value was “reduced”. Besides, the “differentiation to or towards a glucose responsive insulin secreting cell line” value in the assay with HPANC-1 is “promote differentiation”.

(Values after patent publication US9328331B2, “Compositions and methods for promoting beta cell maturity” (Joslin Diabetes Center, Inc., priority 2009, dated 2016).)
